Data on 13 compounds can be found in ChEMBL document CHEMBL3045785, “Synthesis and anti-inflammatory activity of 1-acetyl/propanoyl-5-aryl-3-(4-morpholinophenyl)-4,5-dihydro-1H-pyrazole derivatives” (2012).

The subject of experiment [1] is Rattus norvegicus. Put plainly: Anti-inflammatory activity in Rattus norvegicus albino (rat) assessed as inhibition of carrageenan-induced paw edema at 10 mg/kg, ip administered 1 hr prior tocarrageenan-challenge measured after 3 hr relative to indomethacin. The experiment is classed as functional. The following applies: route intraperitoneal.
The test system of experiment [2] is Rattus norvegicus. Put plainly: Anti-inflammatory activity in Rattus norvegicus albino (rat) assessed as inhibition of carrageenan-induced paw edema at 10 mg/kg, ip administered 1 hr prior tocarrageenan-challenge measured after 3 hr relative to control. The experiment is classed as functional. The following applies: route intraperitoneal.

As for `CCC(=O)N1N=C(c2ccc(N3CCOCC3)cc2)CC1c1cccs1` (stereo not given), the inhibition in vivo at 10 mg/kg in the experiment on Rattus norvegicus [1] stood at 1.84%; in the experiment on Rattus norvegicus [2], 1.08%. The like results for `COc1ccc(C2CC(c3ccc(N4CCOCC4)cc3)=NN2C(C)=O)cc1OC` (stereo not given) were, in that order, 9.82% and 5.78%.

As to `COc1cc(OC)cc(C2CC(c3ccc(N4CCOCC4)cc3)=NN2C(C)=O)c1` (stereo not given), the inhibition in vivo at 10 mg/kg with Rattus norvegicus [1] came to 22.7%; in the experiment with Rattus norvegicus [2] it was 13.4%.

`COc1cc(C2CC(c3ccc(N4CCOCC4)cc3)=NN2C(C)=O)cc(OC)c1OC` (stereo not given): the inhibition in vivo at 10 mg/kg turned out to be 6.13% in the experiment on Rattus norvegicus [1] and 3.61% with Rattus norvegicus [2]. On the same counts, the results for `CCC(=O)N1N=C(c2ccc(N3CCOCC3)cc2)CC1c1ccc(Br)cc1` (stereo not given) are 31.3% and 18.4%. On the same counts, the results for `CCC(=O)N1N=C(c2ccc(N3CCOCC3)cc2)CC1c1cc(OC)cc(OC)c1` (stereo not given) are 27% and 15.9%. With `CC(=O)N1N=C(c2ccc(N3CCOCC3)cc2)CC1c1ccc(Br)cc1` (stereo not given), the inhibition in vivo at 10 mg/kg is 19% with Rattus norvegicus [1] and 11.2% in the experiment on Rattus norvegicus [2]. On the same counts, the results for `CCC(=O)N1N=C(c2ccc(N3CCOCC3)cc2)CC1c1ccc(OC)c(OC)c1` (stereo not given) are 52.8% and 31.1%. As for `CCC(=O)N1N=C(c2ccc(N3CCOCC3)cc2)CC1c1cc(OC)c(OC)c(OC)c1` (stereo not given), the results for the inhibition in vivo at 10 mg/kg in the experiment on Rattus norvegicus [1] and in the experiment on Rattus norvegicus [2] were 1.84% and 1.08%, respectively. On the same counts, the results for `CCC(=O)N1N=C(c2ccc(N3CCOCC3)cc2)CC1c1ccccc1OC` (stereo not given) are 10.4% and 6.14%. For the compound `CC(=O)N1N=C(c2ccc(N3CCOCC3)cc2)CC1c1cccs1` (stereo not given), the inhibition in vivo at 10 mg/kg in the experiment with Rattus norvegicus [1] was 11.7%; in the experiment with Rattus norvegicus [2], 6.86%. `COc1ccccc1C1CC(c2ccc(N3CCOCC3)cc2)=NN1C(C)=O` (stereo not given): the inhibition in vivo at 10 mg/kg amounted to 52.8% with Rattus norvegicus [1] and 31.1% in the experiment with Rattus norvegicus [2]. As for `COc1ccc2c(c1)c(CC(=O)O)c(C)n2C(=O)c1ccc(Cl)cc1` [INDOMETHACIN], in the experiment with Rattus norvegicus [2], the inhibition in vivo at 10 mg/kg came out at 58.8%.
